How the values were obtained:
Integrin alpha-V/beta-3 = Integrin alpha-V/beta-3 (Homo sapiens, UniProt P05106+P06756); test: Inhibition of Vitronectin receptor (alpha V beta 3) binding to vitronectin
[1] = molecular target: Integrin alpha-IIb/beta-3 (Homo sapiens, UniProt P05106+P08514); test: Inhibition of alpha IIb beta-3 integrin binding to fibrinogen; type: protein-complex assay
Integrin alpha-IIb/beta-3, sequence (P05106 27-788 limits assumed): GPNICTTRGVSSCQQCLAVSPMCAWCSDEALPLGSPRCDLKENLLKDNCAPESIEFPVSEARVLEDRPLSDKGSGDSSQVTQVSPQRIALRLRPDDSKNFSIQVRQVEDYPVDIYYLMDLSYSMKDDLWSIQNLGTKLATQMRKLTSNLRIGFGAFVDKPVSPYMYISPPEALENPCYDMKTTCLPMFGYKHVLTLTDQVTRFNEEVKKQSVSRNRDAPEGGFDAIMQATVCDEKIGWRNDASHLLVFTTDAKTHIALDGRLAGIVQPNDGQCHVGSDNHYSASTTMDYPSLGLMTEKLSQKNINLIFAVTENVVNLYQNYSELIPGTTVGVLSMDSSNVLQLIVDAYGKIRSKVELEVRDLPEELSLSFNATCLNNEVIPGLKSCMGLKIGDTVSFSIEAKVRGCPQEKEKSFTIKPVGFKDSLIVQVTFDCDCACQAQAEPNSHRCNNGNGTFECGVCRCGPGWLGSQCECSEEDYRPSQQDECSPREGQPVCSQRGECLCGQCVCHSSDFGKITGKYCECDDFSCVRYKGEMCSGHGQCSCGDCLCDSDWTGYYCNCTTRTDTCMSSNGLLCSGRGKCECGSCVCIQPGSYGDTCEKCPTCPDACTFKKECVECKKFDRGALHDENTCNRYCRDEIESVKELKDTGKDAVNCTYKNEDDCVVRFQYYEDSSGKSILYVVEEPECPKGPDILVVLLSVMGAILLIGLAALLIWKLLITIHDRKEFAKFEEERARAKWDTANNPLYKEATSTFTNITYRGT
Integrin alpha-IIb/beta-3, sequence (P08514 32-887 limits assumed): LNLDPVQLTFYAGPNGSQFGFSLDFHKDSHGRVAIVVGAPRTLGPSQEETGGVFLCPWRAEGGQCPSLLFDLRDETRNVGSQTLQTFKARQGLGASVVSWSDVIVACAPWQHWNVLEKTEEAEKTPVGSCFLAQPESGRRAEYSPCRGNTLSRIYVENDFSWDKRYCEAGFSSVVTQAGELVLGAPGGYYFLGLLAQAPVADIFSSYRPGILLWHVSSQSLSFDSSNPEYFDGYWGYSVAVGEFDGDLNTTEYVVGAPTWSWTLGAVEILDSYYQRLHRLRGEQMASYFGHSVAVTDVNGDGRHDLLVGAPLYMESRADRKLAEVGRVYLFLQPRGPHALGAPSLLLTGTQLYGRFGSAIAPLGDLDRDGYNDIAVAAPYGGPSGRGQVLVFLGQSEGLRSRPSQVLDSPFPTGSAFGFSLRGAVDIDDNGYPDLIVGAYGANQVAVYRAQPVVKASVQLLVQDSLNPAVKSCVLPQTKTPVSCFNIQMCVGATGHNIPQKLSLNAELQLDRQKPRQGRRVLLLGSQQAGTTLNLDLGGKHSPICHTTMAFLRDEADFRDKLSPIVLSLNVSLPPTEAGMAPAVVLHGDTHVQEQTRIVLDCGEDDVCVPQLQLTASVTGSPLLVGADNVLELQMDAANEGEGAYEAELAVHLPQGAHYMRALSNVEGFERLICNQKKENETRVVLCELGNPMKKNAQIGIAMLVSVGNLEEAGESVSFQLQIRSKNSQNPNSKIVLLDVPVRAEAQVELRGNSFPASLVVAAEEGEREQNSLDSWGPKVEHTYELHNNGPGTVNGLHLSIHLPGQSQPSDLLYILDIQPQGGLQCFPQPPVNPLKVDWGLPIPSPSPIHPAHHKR
Integrin alpha-IIb/beta-3, sequence (P08514 891-1039 limits assumed): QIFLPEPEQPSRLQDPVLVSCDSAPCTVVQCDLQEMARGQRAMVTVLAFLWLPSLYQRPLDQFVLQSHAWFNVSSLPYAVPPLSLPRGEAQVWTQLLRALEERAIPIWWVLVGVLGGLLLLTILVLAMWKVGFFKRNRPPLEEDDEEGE

Integrin alpha-V/beta-3, sequence (P05106 27-788 limits assumed): as the sequence (P05106 27-788 limits assumed) above
Integrin alpha-V/beta-3, sequence (P06756 31-889 limits assumed): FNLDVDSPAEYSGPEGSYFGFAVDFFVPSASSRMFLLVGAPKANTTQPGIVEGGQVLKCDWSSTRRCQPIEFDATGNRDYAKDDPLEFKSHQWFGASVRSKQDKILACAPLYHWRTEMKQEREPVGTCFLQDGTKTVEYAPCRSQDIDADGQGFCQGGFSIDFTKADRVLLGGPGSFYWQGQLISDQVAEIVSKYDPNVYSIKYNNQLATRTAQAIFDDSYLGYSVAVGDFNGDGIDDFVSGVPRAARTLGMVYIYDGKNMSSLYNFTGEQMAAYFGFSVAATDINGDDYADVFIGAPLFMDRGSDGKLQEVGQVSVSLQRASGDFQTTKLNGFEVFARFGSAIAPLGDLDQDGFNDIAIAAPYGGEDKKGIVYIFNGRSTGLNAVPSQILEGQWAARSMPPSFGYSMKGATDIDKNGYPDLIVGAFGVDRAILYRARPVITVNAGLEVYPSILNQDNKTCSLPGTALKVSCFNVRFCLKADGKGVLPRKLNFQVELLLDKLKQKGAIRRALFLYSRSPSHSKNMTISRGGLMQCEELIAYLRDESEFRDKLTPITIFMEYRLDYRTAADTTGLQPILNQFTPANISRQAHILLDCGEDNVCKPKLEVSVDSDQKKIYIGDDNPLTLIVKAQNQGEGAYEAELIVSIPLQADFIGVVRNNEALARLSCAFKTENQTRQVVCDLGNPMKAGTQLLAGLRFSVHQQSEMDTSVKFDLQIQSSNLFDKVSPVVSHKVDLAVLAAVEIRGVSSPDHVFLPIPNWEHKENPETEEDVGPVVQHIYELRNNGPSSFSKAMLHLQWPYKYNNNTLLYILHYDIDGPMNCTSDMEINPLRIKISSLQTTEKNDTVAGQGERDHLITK
Integrin alpha-V/beta-3, sequence (P06756 891-1048 limits assumed): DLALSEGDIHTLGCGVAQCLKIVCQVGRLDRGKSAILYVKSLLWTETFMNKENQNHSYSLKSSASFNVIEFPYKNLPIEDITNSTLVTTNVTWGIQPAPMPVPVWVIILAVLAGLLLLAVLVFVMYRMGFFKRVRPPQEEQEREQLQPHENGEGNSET

With `NCCCC[C@H](NC(=O)[C@@H]1CCCN1C(=O)[C@H](CO)NC(=O)[C@H](CC(=O)O)NC(=O)CNC(=O)[C@H](CCCN=C(N)N)NC(=O)CN)C(=O)O` the IC50 (Integrin alpha-V/beta-3) was 210 nM and the IC50 [1] was 1700 nM.

Source: ChEMBL document CHEMBL1132654 (J Med Chem, 1999)
